Key:
[1] = target: T1, Retinoic acid receptor alpha [200-419] (Homo sapiens, UniProt P10276); assay: Retinoid Competition Binding Assay; conditions: pH 7.9; 4 °C
T1 construct: 200-419
T1 sequence (P10276 whole entry): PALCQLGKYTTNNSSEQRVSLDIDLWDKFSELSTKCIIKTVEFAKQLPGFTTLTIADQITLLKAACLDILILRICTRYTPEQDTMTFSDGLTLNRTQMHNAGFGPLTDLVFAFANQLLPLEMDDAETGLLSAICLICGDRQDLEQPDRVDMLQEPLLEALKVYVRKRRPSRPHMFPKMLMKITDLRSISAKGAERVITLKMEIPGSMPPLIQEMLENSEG

[2] = target: T2, Retinoic acid receptor beta [200-419] (Homo sapiens, UniProt P10826); assay: Retinoid Competition Binding Assay; conditions: pH 7.9; 4 °C
T2 construct: 200-419
T2 sequence (P10826 whole entry): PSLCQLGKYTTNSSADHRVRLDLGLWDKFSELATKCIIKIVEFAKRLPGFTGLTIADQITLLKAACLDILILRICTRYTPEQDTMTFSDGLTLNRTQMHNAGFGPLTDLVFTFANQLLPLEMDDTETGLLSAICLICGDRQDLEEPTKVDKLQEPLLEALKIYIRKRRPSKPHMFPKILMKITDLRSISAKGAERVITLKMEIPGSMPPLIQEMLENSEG

Which results are given for CC1(C)CCC(C)(C)c2cc(C(=O)/C=C/c3ccc(C(=O)O)cc3)ccc21 [Ch 80]?
Kd [1]: 0.4 nM; Kd [2]: 3.5 nM
